Converted amounts (≈) assume the structure as drawn. The source made the active and inactive calls. The calls are words filed in the database; no cut-off is given here.
Tests used:
[1] = system: Mycobacterium tuberculosis; experiment: Bacteriostatic activity against Mycobacterium tuberculosis H37Rv at 25 ug/mL assessed as growth index after 3 days by radiometric growth assay (reference value: 210 growth index); type: functional
[2] = system: Mycobacterium tuberculosis; experiment: Antitubercular activity against Mycobacterium tuberculosis H37Rv after […] by radiometric growth assay; type: functional
[3] = system: Mycobacterium tuberculosis; experiment: Bacteriostatic activity against Mycobacterium tuberculosis H37Rv at 1 ug/mL assessed as growth index after 7 days by radiometric growth assay (reference value: 210 growth index); type: functional
[4] = system: Mycobacterium tuberculosis; experiment: Bacteriostatic activity against Mycobacterium tuberculosis H37Rv at 1 ug/mL assessed as growth index after 4 days by radiometric growth assay (reference value: 210 growth index); type: functional
[5] = system: Mycobacterium tuberculosis; experiment: Bacteriostatic activity against Mycobacterium tuberculosis H37Rv at 0.5 ug/mL assessed as growth index after 5 days by radiometric growth assay (reference value: 210 growth index); type: functional
[6] = system: Mycobacterium tuberculosis; experiment: Bacteriostatic activity against Mycobacterium tuberculosis H37Rv at 0.5 ug/mL assessed as growth index after 10 days by radiometric growth assay (reference value: 210 growth index); type: functional
[7] = system: Mycobacterium tuberculosis; experiment: Bacteriostatic activity against Mycobacterium tuberculosis H37Rv at 0.5 ug/mL assessed as growth index after 3 days by radiometric growth assay (reference value: 210 growth index); type: functional
[8] = system: Mycobacterium tuberculosis; experiment: Bacteriostatic activity against Mycobacterium tuberculosis H37Rv at 0.5 ug/mL assessed as growth index after 4 days by radiometric growth assay (reference value: 210 growth index); type: functional
[9] = system: Mycobacterium tuberculosis; experiment: Bacteriostatic activity against Mycobacterium tuberculosis H37Rv at 1 ug/mL assessed as growth index after 10 days by radiometric growth assay (reference value: 210 growth index); type: functional
[10] = system: Mycobacterium tuberculosis; experiment: Bacteriostatic activity against Mycobacterium tuberculosis H37Rv at 1 ug/mL assessed as growth index after 3 days by radiometric growth assay (reference value: 210 growth index); type: functional
[11] = system: Mycobacterium tuberculosis; experiment: Bacteriostatic activity against Mycobacterium tuberculosis H37Rv at 0.5 ug/mL assessed as growth index after 7 days by radiometric growth assay (reference value: 210 growth index); type: functional
[12] = system: Mycobacterium tuberculosis; experiment: Bacteriostatic activity against Mycobacterium tuberculosis H37Rv at 1 ug/mL assessed as growth index after 5 days by radiometric growth assay (reference value: 210 growth index); type: functional
[13] = system: Mycobacterium tuberculosis; experiment: Bacteriostatic activity against Mycobacterium tuberculosis H37Rv at 0.1 ug/mL assessed as growth index after 5 days by radiometric growth assay (reference value: 210 growth index); type: functional
[14] = system: Mycobacterium tuberculosis; experiment: Bacteriostatic activity against Mycobacterium tuberculosis H37Rv at 0.1 ug/mL assessed as growth index after 4 days by radiometric growth assay (reference value: 210 growth index); type: functional
[15] = system: Mycobacterium tuberculosis; experiment: Bacteriostatic activity against Mycobacterium tuberculosis H37Rv at 0.1 ug/mL assessed as growth index after 3 days by radiometric growth assay (reference value: 210 growth index); type: functional
[16] = system: Mycobacterium tuberculosis; experiment: Bacteriostatic activity against Mycobacterium tuberculosis H37Rv at 0.1 ug/mL assessed as growth index after 7 days by radiometric growth assay (reference value: 210 growth index); type: functional
[17] = system: Mycobacterium tuberculosis; experiment: Bacteriostatic activity against Mycobacterium tuberculosis H37Rv at 5 ug/mL assessed as growth index after 7 days by radiometric growth assay (reference value: 210 growth index); type: functional
[18] = system: Mycobacterium tuberculosis; experiment: Bacteriostatic activity against Mycobacterium tuberculosis H37Rv at 5 ug/mL assessed as growth index after 5 days by radiometric growth assay (reference value: 210 growth index); type: functional
[19] = system: Mycobacterium tuberculosis; experiment: Bacteriostatic activity against Mycobacterium tuberculosis H37Rv at 5 ug/mL assessed as growth index after 4 days by radiometric growth assay (reference value: 210 growth index); type: functional
[20] = system: Mycobacterium tuberculosis; experiment: Bacteriostatic activity against Mycobacterium tuberculosis H37Rv at 5 ug/mL assessed as growth index after 3 days by radiometric growth assay (reference value: 210 growth index); type: functional
[21] = system: Mycobacterium tuberculosis; experiment: Bacteriostatic activity against Mycobacterium tuberculosis H37Rv at 5 ug/mL assessed as growth index after 10 days by radiometric growth assay (reference value: 210 growth index); type: functional
[22] = system: Mycobacterium tuberculosis; experiment: Antitubercular activity against Mycobacterium tuberculosis H37Rv at 40 ug/mL by radiometric growth assay; type: functional, organism-based
[23] = system: Mycobacterium tuberculosis; experiment: Antitubercular activity against Mycobacterium tuberculosis H37Rv at 80 ug/mL by radiometric growth assay; type: functional, organism-based
[24] = system: Mycobacterium tuberculosis; experiment: Antitubercular activity against Mycobacterium tuberculosis H37Rv at 10 ug/mL by radiometric growth assay; type: functional, organism-based
[25] = system: Mycobacterium tuberculosis; experiment: Bacteriostatic activity against Mycobacterium tuberculosis H37Rv at 0.1 ug/mL assessed as growth index after 10 days by radiometric growth assay (reference value: 210 growth index); type: functional
[26] = system: Mycobacterium tuberculosis; experiment: Antitubercular activity against Mycobacterium tuberculosis H37Rv at 1 ug/mL by radiometric growth assay; type: functional, organism-based
[27] = system: Mycobacterium tuberculosis; experiment: Bacteriostatic activity against Mycobacterium tuberculosis H37Rv at 0.05 ug/mL assessed as growth index after 7 days by radiometric growth assay (reference value: 210 growth index); type: functional
[28] = system: Mycobacterium tuberculosis; experiment: Bacteriostatic activity against Mycobacterium tuberculosis H37Rv at 0.05 ug/mL assessed as growth index after 3 days by radiometric growth assay (reference value: 210 growth index); type: functional
[29] = system: Mycobacterium tuberculosis; experiment: Bacteriostatic activity against Mycobacterium tuberculosis H37Rv at 0.05 ug/mL assessed as growth index after 4 days by radiometric growth assay (reference value: 210 growth index); type: functional
[30] = system: Bacillus cereus; experiment: Antibacterial activity against Bacillus cereus 8035 up to 1 ug/mL after 5 days by broth dilution method; type: functional, organism-based
[31] = system: Staphylococcus aureus; experiment: Antibacterial activity against Staphylococcus aureus 209p up to 1 ug/mL after 5 days by broth dilution method; type: functional, organism-based
[32] = system: Candida albicans; experiment: Antifungal activity against Candida albicans 855-653 up to 1 ug/mL after 14 days by broth dilution method; type: functional, organism-based
[33] = system: Mus musculus; experiment: Acute toxicity in white outbred mouse assessed as mortality at 3000 mg/kg, po after 14 days; type: organism-based; parameters: dose 3000 mg/kg, route oral; conditions: in vivo, 336 h
[34] = system: Trichophyton mentagrophytes; experiment: Antifungal activity against Trichophyton mentagrophytes 1773 up to 1 ug/mL after 14 days by broth dilution method; type: functional, organism-based
[35] = system: Rattus norvegicus; experiment: Acute toxicity in rat assessed as mortality at 3000 mg/kg, po after 14 days; type: organism-based; parameters: dose 3000 mg/kg, route oral; conditions: in vivo, 336 h
[36] = system: Aspergillus niger; experiment: Antifungal activity against Aspergillus niger BKMF-1119 up to 1 ug/mL after 14 days by broth dilution method; type: functional, organism-based
[37] = system: Escherichia coli; experiment: Antibacterial activity against Escherichia coli F-50 up to 1 ug/mL after 5 days by broth dilution method; type: functional, organism-based
[38] = system: Mycobacterium tuberculosis; experiment: Bacteriostatic activity against Mycobacterium tuberculosis H37Rv at 0.05 ug/mL assessed as growth index after 5 days by radiometric growth assay (reference value: 210 growth index); type: functional

SMILES | MIC [2] [µg/mL] | Growth_index [3] | Growth_index [4] | Growth_index [5] | Growth_index [6] | Growth_index [7] | Growth_index [8] | Growth_index [10] | Growth_index [11] | Growth_index [12] | Growth_index [13] | Growth_index [14] | Growth_index [15] | Growth_index [16] | other results
Cn1c(=O)n(C)c(=O)n(CCS(=O)(=O)CC(N)=O)c1=O | 25 (≈ 81.6 µM) | – | – | – | – | – | – | – | – | – | – | – | – | – | Growth_index [1]: >90
Cn1c(=O)n(C)c(=O)n(CCS(=O)(=O)CC(=O)NN)c1=O | 0.5 (≈ 1.56 µM) | 33 | 24 | 40 | 53 | 25 | 40 | 18 | 40 | 33 | – | – | – | – | Growth_index [9]: 33
Cn1c(=O)n(C)c(=O)n(C[S+]([O-])CC(N)=O)c1=O (stereo not given) | 0.1 (≈ 0.362 µM) | – | – | 50 | 50 | 32 | 50 | – | 50 | – | 36 | 30 | 30 | >90 | –
Cn1c(=O)n(C)c(=O)n(C[S+]([O-])CC(=O)NN)c1=O (stereo not given) | 1 (≈ 3.43 µM) | >90 | 48 | – | – | – | – | 15 | – | 78 | – | – | – | – | Growth_index [17]: >90; Growth_index [18]: 67; Growth_index [19]: 17; Growth_index [20]: 10
Cn1c(=O)n(C)c(=O)n(CC[S+]([O-])CC(N)=O)c1=O (stereo not given) | 10 (≈ 34.4 µM) | – | – | – | – | – | – | – | – | – | – | – | – | – | Growth_index [1]: >90
Cn1c(=O)n(C)c(=O)n(CCCCC[S+]([O-])CC(N)=O)c1=O (stereo not given) | 0.1 (≈ 0.301 µM) | >90 | 30 | 38 | 60 | 26 | 37 | 12 | 50 | 30 | 30 | 27 | 23 | >90 | –
Cn1c(=O)n(C)c(=O)n(CCCCCC[S+]([O-])CC(N)=O)c1=O (stereo not given) | 1 (≈ 2.89 µM) | 54 | 45 | – | – | – | – | 25 | – | 47 | – | – | – | – | Growth_index [17]: 66; Growth_index [18]: 42; Growth_index [9]: >90; Growth_index [21]: 66; Growth_index [19]: 31; Growth_index [20]: 15
CO[C@H]1/C=C/O[C@@]2(C)Oc3c(C)c(O)c4c(O)c(c(/C=N/N5CCN(C)CC5)c(O)c4c3C2=O)NC(=O)/C(C)=C\C=C\[C@H](C)[C@H](O)[C@@H](C)[C@@H](O)[C@@H](C)[C@H](OC(C)=O)[C@@H]1C | – | – | – | – | – | – | – | – | – | – | – | – | – | – | Activity [22]: Active; Activity [23]: Active
CC1COc2c(N3CCN(C)CC3)c(F)cc3c(=O)c(C(=O)O)cn1c23 (stereo not given) | – | – | – | – | – | – | – | – | – | – | – | – | – | – | Activity [24]: Active
Cn1c(=O)n(C)c(=O)n(CS(=O)(=O)CC(=O)NN)c1=O | 0.1 (≈ 0.325 µM) | 20 | 20 | 52 | 52 | 25 | 41 | 20 | 52 | – | 47 | 43 | 35 | 47 | Growth_index [9]: 20; Growth_index [25]: 47
Cn1c(=O)n(C)c(=O)n(CCCCC[S+]([O-])CC(=O)NN)c1=O (stereo not given) | 0.05 (≈ 0.144 µM) | – | – | – | – | – | – | – | – | – | 1 | 0 | 0 | 2 | Activity [26]: Active; Growth_index [27]: >90; Growth_index [28]: 15; Growth_index [29]: 27; Activity [30]: inactive; Activity [31]: inactive; Activity [24]: Active; Activity [32]: inactive; Activity [33]: Non-toxic; Activity [34]: inactive; Activity [35]: Non-toxic; Activity [36]: inactive; Activity [37]: inactive; Growth_index [25]: 2; Growth_index [38]: 32
NNC(=O)c1ccncc1 [ISONIAZID] | 0.1 (≈ 0.729 µM) | – | – | – | – | – | – | – | – | – | – | – | – | – | Activity [26]: Active; Activity [24]: Active

From ChEMBL document CHEMBL2034954, “Synthesis and antimycobacterial activity of novel 1,3-dimethylisocyanurate derivatives” (Eur J Med Chem, 2012)
